Experimental data: article PMC8589628, “Characterization and Antimicrobial Studies of Iturin-Like and Bogorol-Like Lipopeptides From Brevibacillus spp. Strains GI9 and SKDU10” (Frontiers in Microbiology, 2021)
Like-named read-outs stand apart in the source and are kept apart here. Peptide text beside a SMILES is read from it. * marks the point of attachment. X1 = CC(C)CCCCCCCCCCCCC(=O)*

Columns and labels:
[1] = Effect of temperature and pH on activity (well-diffusion assay); assay type: physicochemical
Protocol: (§1) Sensitivities of purified antimicrobial compounds to temperature, pH, and hydrolytic enzymes were confirmed by performing well-diffusion assay. pH stability was determined by adjusting the pH of aliquots of purified antimicrobial compounds from 2.0 to 12.0 (using 10 mM HCl or NaOH) and incubating at room temperature for 4 h. The residual activity was measured after neutralizing the sample to pH 7.0. To determine temperature susceptibility, antimicrobial compounds were incubated at different temperatures ranging from 37 to 100°C for 1 h and 121°C for 15 min, and then residual antimicrobial activity was determined after cooling the samples to room temperature. Similarly, proteolytic enzymes such as trypsin and proteinase K were used at three different concentrations (0.1, 1.0, and 5.0 mg/ml) to ensure their effect on the activity of antimicrobial compounds. The enzyme solutions were prepared in 50 mM phosphate buffer (pH 7.0). All reactions were performed at 37°C for 6 h followed by deactivation of the enzyme by heating the solution in boiling water for 5 min before performing the activity assay.

S. aureus MTCC 1430 [2] = experiment: TEM of treated cells; assay type: cell-based, Staphylococcus aureus; conditions: S. aureus MTCC 1430, 1X MIC, 30 min, 37°C
Protocol: (§2) Effect of antimicrobial compounds on cell membrane of test organisms was determined by transmission electron microscopy (TEM). Test strains, S. aureus MTCC 1430, V. cholerae MTCC 3904, and C. albicans MTCC 183 were cultured to mid-log phase, washed, and re-suspended in 1X PBS (OD 600 nm 0.2). The cell suspensions were incubated (37°C) with 1X MIC of purified antimicrobial compounds for 30 min. Cells after treatment were centrifuged, washed twice with PBS. For TEM, cells of S. aureus MTCC 1430 and V. cholerae MTCC 3904 were subjected to negative stain with 0.1% (w/v) sodium phosphotungstate (PTA, Sigma, United States) in water for 1 min, on a carbon-coated copper grid with 300 mesh (Polyscience, United States) and observed under transmission electron microscope (JEOL JEM 2100, United States) ([Raje et al., 2006]). For SEM, C. albicans MTCC 183 cells were immobilized on poly L-lysine glazed glass slides and incubated at 4°C for 2 h. Cells were fixed using Karnovsky’s fixative and serially dehydrated with gradient of ethanol, freeze dried, and platinum coated. ZEISS EV040 (United States) scanning electron microscope was employed to photograph the cells ([Raje et al., 2006]). Spores of A. brassicicola MTCC 2102 were treated with 2X MIC of lipopeptides for 2 h and observed under phase-contrast microscope (Nickon H600L, Japan). […]

B. subtilis MTCC 121 = assay type: cell-based, Bacillus subtilis
Protocol: (§3) The antimicrobial activity of HPLC purified compounds was determined against various test strains including S. aureus MTCC 1430, Vibrio cholera MTCC 3904, Bacillus subtilis MTCC 121, Listeria monocytogenes MTCC 839, C. albicans MTCC 183, C. albicans MTCC 1637, C. albicans MTCC 227, C. tropicalis MTCC 184, C. glabrata MTCC 3019, and C. inconspicua MTCC 1074. Antimicrobial activity was also tested against clinical Candida strains and phytopathogenic fungi viz. Fusarium moniliforme MTCC 158, Alternaria brassicicola MTCC 2102 and Colletotrichum acutatum MTCC 1037. Bacterial and Candida test strains were grown in NB and yeast malt broth (YMB), respectively. Fungal test strains were grown in potato dextrose broth (PDB). Minimum inhibitory concentrations (MICs) of purified compounds were evaluated against test organisms by using a microtiter plate dilution assay. Mid-log-phase test strains (5 × 10^5 CFU/ml) were incubated in a 96-well plate with different concentrations of the lipopeptides for 24–48 h at 37°C (final volume of 200 μl). OD was measured at 600 nm after 24 and 48 h for bacteria and yeast, respectively, using an ELISA microplate reader (Thermo Scientific, United States). MIC against phytopathogenic fungi was determined using the 96-well microtiter plate method ([Sharma et al., 2020]).

[3] = tested on: L. monocytogenes MTCC 839; assay type: cell-based, Listeria monocytogenes
Protocol: as §3

Proteinase K = Proteinase K (Parengyodontium album, UniProt P06873); experiment: Effect of hydrolytic enzymes on activity (well-diffusion assay); assay type: in vitro ADME; conditions: for Tolerance to proteinase K treatment: 37°C, 6 h; for Residual activity: Proteinase K, 6h/ 37 °C, 50 mM phosphate buffer (pH 7.0), enzyme 0.1, 1.0 and 5.0 mg/ml used, well-diffusion assay
Proteinase K, sequence (P06873 106-384): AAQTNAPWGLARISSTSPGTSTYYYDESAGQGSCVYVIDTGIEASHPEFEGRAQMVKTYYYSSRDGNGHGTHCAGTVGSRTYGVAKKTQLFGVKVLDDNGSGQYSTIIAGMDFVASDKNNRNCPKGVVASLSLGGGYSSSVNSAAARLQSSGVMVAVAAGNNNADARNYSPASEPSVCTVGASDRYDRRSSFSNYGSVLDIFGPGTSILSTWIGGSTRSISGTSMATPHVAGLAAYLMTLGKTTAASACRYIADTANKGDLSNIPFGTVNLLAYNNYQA
Protocol: as §1

Trypsin = experiment: as above; assay type: in vitro ADME; conditions: for Tolerance to trypsin treatment: 37°C, 6 h; for Residual activity: Trypsin, 6h/ 37 °C, 50 mM phosphate buffer (pH 7.0), enzyme 0.1, 1.0 and 5.0 mg/ml used, well-diffusion assay
Protocol: as §1

Chymotrypsin = experiment: as above; assay type: in vitro ADME; conditions: 6h/ 37 °C
Protocol: as §1

V. cholerae MTCC 3904 [4] = assay type: cell-based, Vibrio cholera
Protocol: as §3

[5] = tested on: Spores of A. brassicicola MTCC 2102; experiment: Phase-contrast microscopy of treated spores; assay type: cell-based, Alternaria brassicicola; conditions: A. brassicicola MTCC 2102 spores, 2X MIC, 2 h
Protocol: as §2

S. aureus MTCC 1430 [6] = experiment: Time kill assay; assay type: cell-based, Staphylococcus aureus; conditions: in PBS, CFU count
Protocol: Killing kinetics of purified compounds was performed using cells of S. aureus MTCC 1430, V. cholerae MTCC 3904, and C. albicans MTCC 183. Test strains were grown to obtain OD between 0.2 and 0.3 (OD 600 nm), centrifuged, and washed thrice with sterile PBS. Pellets were suspended in PBS and treated with different concentrations of active compounds. Cells after treatment were washed, resuspended, and serially diluted cell suspensions were plated on NA plates. After overnight incubation at 37°C, CFU were recorded ([Singh et al., 2021]).

V. cholerae MTCC 3904 [7] = experiment: TEM of treated cells; assay type: cell-based; conditions: V. cholerae MTCC 3904, 1X MIC, 30 min, 37°C
Protocol: as §2

[8] = Temperature 37 °C, 1h (pH 7.0), well-diffusion assay
[9] = Temperature 60 °C, 1h (pH 7.0), well-diffusion assay
[10] = Temperature 80 °C, 1h (pH 7.0), well-diffusion assay
[11] = Temperature 100 °C, 1h (pH 7.0), well-diffusion assay
[12] = Temperature 121 °C, 15 min (304 kPa) (pH 7.0), well-diffusion assay
[13] = pH 2.0, 4h/ 25 °C, neutralised to pH 7.0 before well-diffusion assay
[14] = pH 4.0, 4h/ 25 °C, neutralised to pH 7.0 before well-diffusion assay
[15] = pH 6.0, 4h/ 25 °C, neutralised to pH 7.0 before well-diffusion assay
[16] = pH 7.0, 4h/ 25 °C, well-diffusion assay
[17] = pH 8.0, 4h/ 25°C, neutralised to pH 7.0 before well-diffusion assay
[18] = pH 10.0, 4h/ 25 °C, neutralised to pH 7.0 before well-diffusion assay
[19] = pH 12.0, 4h/ 25 °C, neutralised to pH 7.0 before well-diffusion assay

Compound | Residual activity [1, 8] | Residual activity [1, 9] | Residual activity [1, 10] | Residual activity [1, 11] | Residual activity [1, 12] | Residual activity [1, 13] | Residual activity [1, 14] | Residual activity [1, 15] | Residual activity [1, 16] | Residual activity [1, 17] | Residual activity [1, 18] | Residual activity [1, 19] | Effect on cells (TEM) (S. aureus MTCC 1430 [2]) | Tolerance to proteinase K treatment (Proteinase K) | Residual activity (Proteinase K) | Tolerance to trypsin treatment (Trypsin) | Residual activity (Trypsin) | Residual activity (Chymotrypsin) | Effect on spores (phase-contrast microscopy) [5] | Time to complete reduction in population (S. aureus MTCC 1430 [6]; S. aureus MTCC 1430, 1X MIC) | also measured
Dhb-Tyr-Orn-Ile-Val-Val-Lys-Val-Leu-Asp-Val-Glu [BLL, bogorol like lipopeptide purified from Brevibacillus sp. strain SKDU10; 12 amino acids and C17 hydroxy fatty acid side chain] | 100% | 100% | 100% | 100% | 100% | 52% | 100% | 100% | 100% | 100% | 94.3% | Nil | irregularities in structure with rupturing of cell wall and lysis | resistant | 77.7% | resistant | 91.6% | 94.4% | structural irregularity | ≤ 30 min | Thermostability (activity after exposure to 121°C for 15 min, autoclaving) [1]: thermostable; MIC value (B. subtilis MTCC 121; B. subtilis MTCC 121, NB, 5 × 10^5 CFU/ml, 37°C, OD 600 nm after 24 h, 10–550 μg/ml in 5 μg/ml increments): 225 to 235 µg/mL; MIC value ([3]; L. monocytogenes MTCC 839, NB, 5 × 10^5 CFU/ml, 37°C, OD 600 nm after 24 h, 10–550 μg/ml in 5 μg/ml increments): 230 to 240 µg/mL; MIC value (V. cholerae MTCC 3904 [4]; V. cholerae MTCC 3904, NB, 5 × 10^5 CFU/ml, 37°C, OD 600 nm after 24 h, 10–550 μg/ml in 5 μg/ml increments): 140 to 150 µg/mL; Time to complete reduction in population (S. aureus MTCC 1430 [6]; S. aureus MTCC 1430, 2X MIC): ≤ 30 min; Effect on cells (TEM) (V. cholerae MTCC 3904 [7]): irregularities in structure with rupturing of cell wall and lysis
CC(C)CCCCCCCCCCCCC(=O)N[C@H](C(=O)NCC(=O)N[C@@H](C)C(=O)N[C@@H](CO)C(=O)N[C@@H](Cc1c[nH]cn1)C(=O)N[C@@H](CCC(N)=O)C(=O)N[C@@H](CCC(N)=O)C(=O)O)[C@@H](C)O [ILL] (X1-TGASHQQ-OH; N-terminus assumed) | 100% | 100% | 100% | 100% | 100% | 43% | 95.5% | 100% | 100% | 100% | 100% | Nil | lysis with accumulation of debris on cell surface, altered morphology, and shrinkage | resistant | 82.3% | resistant | 94.1% | 91.1% | structural irregularity | ≤ 60 min | MIC value (B. subtilis MTCC 121; MTCC 121, 24 h): 260 to 270 µg/mL; MIC value ([3]; MTCC 839, 24 h): 200 to 220 µg/mL; MIC value (V. cholerae MTCC 3904 [4]; MTCC 3904, 24 h): 105 to 115 µg/mL; Time to complete reduction in population (S. aureus MTCC 1430 [6]; S. aureus MTCC 1430, 2X MIC): ≤ 30 min; Effect on cells (TEM) (V. cholerae MTCC 3904 [7]): lysis with accumulation of debris on cell surface, altered morphology, and shrinkage
